Experimental data as given in patent US8008291B2 (Mimetica Pty Ltd, priority 2008, dated 2011).

Each molecule was assayed against T1, human MC5R (hMC5R) (Homo sapiens, UniProt P33032) (assay: Human MC5R radioligand binding assay (membranes, [125I] NDP-MSH displacement)). Details: hMC5R binding; tested as trifluoroacetate or hydrochloride salts, or free bases; read-out: MC5R radioligand IC50.
T1 construct: purchased Perkin Elmer RBXMC5M400UA
T1 sequence (P33032 whole entry): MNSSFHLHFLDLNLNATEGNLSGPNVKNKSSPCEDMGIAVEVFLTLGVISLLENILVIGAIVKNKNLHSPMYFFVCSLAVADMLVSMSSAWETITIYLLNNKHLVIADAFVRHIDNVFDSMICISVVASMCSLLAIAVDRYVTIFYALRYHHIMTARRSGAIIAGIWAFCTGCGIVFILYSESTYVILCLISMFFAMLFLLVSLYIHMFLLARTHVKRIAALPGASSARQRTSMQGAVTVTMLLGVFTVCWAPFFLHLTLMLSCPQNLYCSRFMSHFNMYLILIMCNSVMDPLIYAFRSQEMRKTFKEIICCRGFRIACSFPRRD
In short: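 Frozen human MC5R membranes incubated with test compound and in-house iodogen-labeled, HPLC-purified [125I]NDP-MSH for 1 hr at 37° C. Binding measured as displacement of the radioligand.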
`Cc1cc(F)cc(CN2CC[C@@H](CNC(=O)c3ccc4ccccc4c3)N[C@@H](CCCN)C2=O)c1` [Compound 321, N-(((3S,5S)-3-(3-aminopropyl)-1-(3-fluoro-5-methylbenzyl)-2-oxo-1,4-diazepan-5-yl)methyl)-2-naphthamide] was tested, and the IC50 was < 10000 nM. `NCCC[C@@H]1N[C@H](CNC(=O)c2ccc3ccccc3c2)CCN(Cc2cc(F)cc(C(F)(F)F)c2)C1=O` [Compound 322, N-(((3S,5S)-3-(3-aminopropyl)-1-(3-fluoro-5-(trifluoromethyl)benzyl)-2-oxo-1,4-diazepan-5-yl)methyl)-2-naphthamide] was tested, and the IC50 was < 10000 nM. `NCCC[C@@H]1N[C@H](CNC(=O)c2ccc3ccccc3c2)CCN(Cc2ccc(Cl)cc2)C1=O` [Compound 323, N-(((3S,5S)-3-(3-aminopropyl)-1-(4-chlorobenzyl)-2-oxo-1,4-diazepan-5-yl)methyl)-2-naphthamide] was tested, and the IC50 was < 10000 nM. In the case of `CCC(CN1CC[C@@H](CNC(=O)c2ccc3ccccc3c2)N[C@@H](CCCN)C1=O)c1ccccc1` (stereo partly drawn) [Compound 324, N-(((3S,5S)-3-(3-aminopropyl)-2-oxo-1-(2-phenylbutyl)-1,4-diazepan-5-yl)methyl)-2-naphthamide], the IC50 is reported as < 1000 nM. In the case of `NCCC[C@@H]1N[C@H](CNC(=O)c2ccc3ccccc3c2)CCN(CC2(c3ccccc3)CCCCC2)C1=O` [Compound 325, N-(((3S,5S)-3-(3-aminopropyl)-2-oxo-1-((1-phenylcyclohexyl)methyl)-1,4-diazepan-5-yl)methyl)-2-naphthamide], the IC50 is reported as < 1000 nM. With `O=C(NC[C@@H]1CCN(Cc2cc(Cl)cc(Cl)c2)C(=O)[C@H](CCN2CCCCC2)N1)c1ccc2ccccc2c1` [Compound 327, N-(((3S,5S)-1-(3,5-dichlorobenzyl)-2-oxo-3-(2-(piperidin-1-yl)ethyl)-1,4-diazepan-5-yl)methyl)-2-naphthamide] the IC50 was < 100 nM. For `CCC(CC)CN1CC[C@@H](CNC(=O)/C=C/c2ccc(Cl)cc2)N[C@@H](CCN)C1=O` [Compound 330, (E)-N-(((3S,5S)-3-(2-aminoethyl)-1-(2-ethylbutyl)-2-oxo-1,4-diazepan-5-yl)methyl)-3-(4-chlorophenyl)acrylamide], the IC50 was < 1000 nM. With `CCC(CC)CN1CC[C@@H](CNC(=O)c2ccc3ccccc3c2)N[C@@H](CCN2CCCCC2)C1=O` [Compound 333, N-(((3S,5S)-1-(2-ethylbutyl)-2-oxo-3-(2-(piperidin-1-yl)ethyl)-1,4-diazepan-5-yl)methyl)-2-naphthamide] the IC50 was < 100 nM. `O=C(NCC[C@@H]1CCN(CC(c2ccccc2)c2ccccc2)C(=O)[C@H](CCN2CCCC2)N1)c1ccc2ccccc2c1` [Compound 339, N-(2-((3S,5R)-1-(2,2-diphenylethyl)-2-oxo-3-(2-(pyrrolidin-1-yl)ethyl)-1,4-diazepan-5-yl)ethyl)-2-naphthamide] was tested, and the IC50 was < 1000 nM. In the case of `NCCC[C@@H]1N[C@H](CNC(=O)c2ccc3ccccc3c2)CCN(Cc2cc(C(F)(F)F)cc(C(F)(F)F)c2)C1=O` [Compound 340, N-(((3S,5S)-3-(3-aminopropyl)-1-(3,5-bis(trifluoromethyl)benzyl)-2-oxo-1,4-diazepan-5-yl)methyl)-2-naphthamide], the IC50 is reported as < 10000 nM. For `NCCC[C@@H]1N[C@H](CNC(=O)c2ccc3ccccc3c2)CCN(Cc2cccc(Cl)c2)C1=O` [Compound 341, N-(((3S,5S)-3-(3-aminopropyl)-1-(3-chlorobenzyl)-2-oxo-1,4-diazepan-5-yl)methyl)-2-naphthamide], the IC50 was < 10000 nM. For `CCC(CN1CC[C@@H](CNC(=O)c2ccc3ccccc3c2)N[C@@H](CCCN2CCCCC2)C1=O)c1ccccc1` (stereo partly drawn) [Compound 342, N-(((3S,5S)-2-oxo-1-(2-phenylbutyl)-3-(3-(piperidin-1-yl)propyl)-1,4-diazepan-5-yl)methyl)-2-naphthamide], the IC50 was < 100 nM. With `N=C(N)NCCC[C@@H]1N[C@H](CNC(=O)c2ccc3ccccc3c2)CCN(CC(C(=O)N2CCCCC2)c2ccccc2)C1=O` (stereo partly drawn) [Compound 343, N-(((3S,5S)-3-(3-guanidinopropyl)-2-oxo-1-(3-oxo-2-phenyl-3-(piperidin-1-yl)propyl)-1,4-diazepan-5-yl)methyl)-2-naphthamide] the IC50 was < 10000 nM. For `N=C(N)NCCC[C@@H]1N[C@H](CNC(=O)c2ccc3ccccc3c2)CCN(CC(C(=O)Nc2ccccc2)c2ccccc2)C1=O` (stereo partly drawn) [Compound 344, N-(((3S,5S)-3-(3-guanidinopropyl)-2-oxo-1-(3-oxo-2-phenyl-3-(phenylamino)propyl)-1,4-diazepan-5-yl)methyl)-2-naphthamide], the IC50 was < 10000 nM. With `CCC(CN1CC[C@@H](CNC(=O)/C=C/c2ccc(Cl)cc2)N[C@@H](CCN)C1=O)c1ccccc1` (stereo partly drawn) [Compound 353, (E)-N-(((3S,5S)-3-(2-aminoethyl)-2-oxo-1-(2-phenylbutyl)-1,4-diazepan-5-yl)methyl)-3-(4-chlorophenyl)acrylamide] the IC50 was < 100 nM. `C[C@H](CN1CC[C@@H](CNC(=O)c2ccc3ccccc3c2)N[C@@H](CCCN)C1=O)c1ccccc1` [Compound 356, N-(((3S,5S)-3-(3-aminopropyl)-2-oxo-1-((S)-2-phenylpropyl)-1,4-diazepan-5-yl)methyl)-2-naphthamide] was tested, and the IC50 was < 1000 nM. In the case of `C[C@@H](CN1CC[C@@H](CNC(=O)c2ccc3ccccc3c2)N[C@@H](CCCN)C1=O)c1ccccc1` [Compound 357, N-(((3S,5S)-3-(3-aminopropyl)-2-oxo-1-((R)-2-phenylpropyl)-1,4-diazepan-5-yl)methyl)-2-naphthamide], the IC50 is reported as < 10000 nM. For `CN(C)CC[C@@H]1N[C@H](CNC(=O)c2ccc3ccccc3c2)CCN(CC(c2ccccc2)c2ccccc2)C1=O` [Compound 358, N-(((3S,5S)-3-(2-(dimethylamino)ethyl)-1-(2,2-diphenylethyl)-2-oxo-1,4-diazepan-5-yl)methyl)-2-naphthamide], the IC50 was < 1000 nM. In the case of `O=C(NC[C@@H]1CCN(CC(c2ccccc2)c2ccccc2)C(=O)[C@H](CCCN2CCCCC2)N1)c1ccc2cc(F)ccc2c1` [Compound 359, N-(((3S,5S)-1-(2,2-diphenylethyl)-2-oxo-3-(3-(piperidin-1-yl)propyl)-1,4-diazepan-5-yl)methyl)-6-fluoro-2-naphthamide], the IC50 is reported as < 100 nM. With `C#Cc1cc(C#C)cc(CN2CC[C@@H](CNC(=O)c3ccc4ccccc4c3)N[C@@H](CCCN)C2=O)c1` [Compound 360, N-(((3S,5S)-3-(3-aminopropyl)-1-(3,5-diethynylbenzyl)-2-oxo-1,4-diazepan-5-yl)methyl)-2-naphthamide] the IC50 was < 1000 nM. In the case of `CCN(CC)CC[C@@H]1N[C@H](CNC(=O)c2ccc3ccccc3c2)CCN(CC(c2ccccc2)c2ccccc2)C1=O` [Compound 362, N-(((3S,5S)-3-(2-(diethylamino)ethyl)-1-(2,2-diphenylethyl)-2-oxo-1,4-diazepan-5-yl)methyl)-2-naphthamide], the IC50 is reported as < 100 nM. For `CC[C@@H](CN1CC[C@@H](CNC(=O)c2ccc(Cl)c(Cl)c2)N[C@@H](CCN2CCCCC2)C1=O)c1ccccc1` [Compound 363, 3,4-dichloro-N-(((3S,5S)-2-oxo-1-((R)-2-phenylbutyl)-3-(2-(piperidin-1-yl)ethyl)-1,4-diazepan-5-yl)methyl)benzamide], the IC50 was < 100 nM. `CC[C@@H](CN1CC[C@@H](CNC(=O)/C=C/c2ccc(Cl)cc2)N[C@@H](CCN2CCCCC2)C1=O)c1ccccc1` [Compound 364, (E)-3-(4-chlorophenyl)-N-(((3S,5S)-2-oxo-1-((R)-2-phenylbutyl)-3-(2-(piperidin-1-yl)ethyl)-1,4-diazepan-5-yl)methyl)acrylamide] was tested, and the IC50 was < 100 nM. `CC[C@H](CN1CC[C@@H](CNC(=O)/C=C/c2ccc(Cl)cc2)N[C@@H](CCN2CCCCC2)C1=O)c1ccccc1` [Compound 365, (E)-3-(4-chlorophenyl)-N-(((3S,5S)-2-oxo-1-((S)-2-phenylbutyl)-3-(2-(piperidin-1-yl)ethyl)-1,4-diazepan-5-yl)methyl)acrylamide] was tested, and the IC50 was < 10 nM. With `NCC[C@@H]1N[C@H](CNC(=O)c2ccc3cc(Cl)ccc3c2)CCN(CC(c2ccccc2)c2ccccc2)C1=O` [Compound 366, N-(((3S,5S)-3-(2-aminoethyl)-1-(2,2-diphenylethyl)-2-oxo-1,4-diazepan-5-yl)methyl)-6-chloro-2-naphthamide] the IC50 was < 100 nM. `O=C(NC[C@@H]1CCN(CC(c2ccccc2)c2ccccc2)C(=O)[C@H](CCN2CCCC2)N1)c1ccc2ccccc2c1` [Compound 367, N-(((3S,5S)-1-(2,2-diphenylethyl)-2-oxo-3-(2-(pyrrolidin-1-yl)ethyl)-1,4-diazepan-5-yl)methyl)-2-naphthamide] was tested, and the IC50 was < 100 nM. `O=C(NC[C@@H]1CCN(CC(c2ccccc2)c2ccccc2)C(=O)[C@H](CCN2CCCCC2)N1)c1ccc2ccccc2c1` [Compound 368, N-(((3S,5S)-1-(2,2-diphenylethyl)-2-oxo-3-(2-(piperidin-1-yl)ethyl)-1,4-diazepan-5-yl)methyl)-2-naphthamide] was tested, and the IC50 was < 100 nM. `CCC(CC)CN1CC[C@@H](CNC(=O)c2ccc3cc(F)ccc3c2)N[C@@H](CCN)C1=O` [Compound 369, N-(((3S,5S)-3-(2-aminoethyl)-1-(2-ethylbutyl)-2-oxo-1,4-diazepan-5-yl)methyl)-6-fluoro-2-naphthamide] was tested, and the IC50 was < 1000 nM. For `CCC(CC)CN1CC[C@@H](CNC(=O)c2ccc3cc(Cl)ccc3c2)N[C@@H](CCN)C1=O` [Compound 370, N-(((3S,5S)-3-(2-aminoethyl)-1-(2-ethylbutyl)-2-oxo-1,4-diazepan-5-yl)methyl)-6-chloro-2-naphthamide], the IC50 was < 1000 nM. In the case of `CCC(CC)CN1CC[C@@H](CNC(=O)c2ccc3cc(Br)ccc3c2)N[C@@H](CCN)C1=O` [Compound 371, N-(((3S,5S)-3-(2-aminoethyl)-1-(2-ethylbutyl)-2-oxo-1,4-diazepan-5-yl)methyl)-6-bromo-2-naphthamide], the IC50 is reported as < 1000 nM. `CCC(CC)CN1CC[C@@H](CNC(=O)c2ccc3cc(F)ccc3c2)N[C@@H](CCN2CCCCC2)C1=O` [Compound 372, N-(((3S,5S)-1-(2-ethylbutyl)-2-oxo-3-(2-(piperidin-1-yl)ethyl)-1,4-diazepan-5-yl)methyl)-6-fluoro-2-naphthamide] was tested, and the IC50 was < 100 nM.
